According to patent US20120101100A1 (priority 2008, published 2012):
Counter-ions that a name gives are not always drawn.

Target: S. aureus GyrB ATPase (Staphylococcus aureus, UniProt P0A0K8)
Assay: S. aureus (SAU) GyrB ATPase inhibition, malachite green phosphate detection (E. coli GyrA + S. aureus GyrB)
Assay type: biochemical
Conditions: compound concentration of 1.0 μM unless otherwise noted; average value where assay was carried out more than once; read-out: S. aureus (SAU) GyrB ATPase % Inhibition
Procedure: Compounds were tested for inhibition of GyrB ATPase activity using an ammonium molybdate/malachite green-based phosphate detection assay (Lanzetta, P. A., L. J. Alvarez, P. S. Reinach, and O. A. Candia, 1979, 100: 95-97). Assays were performed in multiwell plates in 100 μl reactions containing: 50 mM Hepes buffer pH 7.5, 75 mM ammonium acetate, 8.0 mM magnesium chloride, 1.0 mM ethylenediaminetetraacetic acid, 5% glycerol, 2 mM 1,4-Dithio-DL-threitol, 400 nM bovine serum albumin, 5 μg/ml sheared salmon sperm DNA, 1.25 nM E. coli GyrA, 1.25 nM S. aureus GyrB, 500 μM ATP, and compound in dimethylsulfoxide. Reactions were quenched with 150 μl of ammonium molybdate/malachite green detection reagent containing 1.2 mM malachite green hydrochloride, 8.5 mM ammonium molybdate tetrahydrate, and 1 M hydrochloric acid. Plates were read in an absorbance plate reader at 650 nm and percent inhibition values were calculated using dimethylsulfoxide (2%)-containing reactions as 0% inhibition and novobiocin-containing (2 μM) reactions as 100% inhibition controls. Compound potency was based on IC50 measurements determined from reactions performed in the presence of 10 different compound concentrations.

Sequence of S. aureus GyrB ATPase (P0A0K8 whole entry): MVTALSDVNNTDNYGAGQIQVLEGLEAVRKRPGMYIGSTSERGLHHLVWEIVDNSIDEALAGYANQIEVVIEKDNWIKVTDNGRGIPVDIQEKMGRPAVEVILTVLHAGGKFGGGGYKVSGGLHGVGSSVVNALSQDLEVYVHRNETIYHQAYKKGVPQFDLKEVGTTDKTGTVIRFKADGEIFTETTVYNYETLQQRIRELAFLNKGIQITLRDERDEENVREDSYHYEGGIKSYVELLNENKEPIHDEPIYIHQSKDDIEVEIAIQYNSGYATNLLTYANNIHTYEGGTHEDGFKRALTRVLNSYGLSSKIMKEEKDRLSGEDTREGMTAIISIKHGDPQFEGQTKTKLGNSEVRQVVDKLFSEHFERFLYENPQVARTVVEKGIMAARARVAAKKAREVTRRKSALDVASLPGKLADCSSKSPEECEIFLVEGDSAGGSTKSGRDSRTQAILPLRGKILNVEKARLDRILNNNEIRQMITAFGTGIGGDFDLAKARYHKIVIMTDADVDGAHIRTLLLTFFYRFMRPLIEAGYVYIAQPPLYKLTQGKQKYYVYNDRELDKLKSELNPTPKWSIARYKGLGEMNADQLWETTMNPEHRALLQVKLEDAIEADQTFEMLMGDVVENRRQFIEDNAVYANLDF
Sequence of S. aureus GyrB ATPase (P0AES4 whole entry, further chain): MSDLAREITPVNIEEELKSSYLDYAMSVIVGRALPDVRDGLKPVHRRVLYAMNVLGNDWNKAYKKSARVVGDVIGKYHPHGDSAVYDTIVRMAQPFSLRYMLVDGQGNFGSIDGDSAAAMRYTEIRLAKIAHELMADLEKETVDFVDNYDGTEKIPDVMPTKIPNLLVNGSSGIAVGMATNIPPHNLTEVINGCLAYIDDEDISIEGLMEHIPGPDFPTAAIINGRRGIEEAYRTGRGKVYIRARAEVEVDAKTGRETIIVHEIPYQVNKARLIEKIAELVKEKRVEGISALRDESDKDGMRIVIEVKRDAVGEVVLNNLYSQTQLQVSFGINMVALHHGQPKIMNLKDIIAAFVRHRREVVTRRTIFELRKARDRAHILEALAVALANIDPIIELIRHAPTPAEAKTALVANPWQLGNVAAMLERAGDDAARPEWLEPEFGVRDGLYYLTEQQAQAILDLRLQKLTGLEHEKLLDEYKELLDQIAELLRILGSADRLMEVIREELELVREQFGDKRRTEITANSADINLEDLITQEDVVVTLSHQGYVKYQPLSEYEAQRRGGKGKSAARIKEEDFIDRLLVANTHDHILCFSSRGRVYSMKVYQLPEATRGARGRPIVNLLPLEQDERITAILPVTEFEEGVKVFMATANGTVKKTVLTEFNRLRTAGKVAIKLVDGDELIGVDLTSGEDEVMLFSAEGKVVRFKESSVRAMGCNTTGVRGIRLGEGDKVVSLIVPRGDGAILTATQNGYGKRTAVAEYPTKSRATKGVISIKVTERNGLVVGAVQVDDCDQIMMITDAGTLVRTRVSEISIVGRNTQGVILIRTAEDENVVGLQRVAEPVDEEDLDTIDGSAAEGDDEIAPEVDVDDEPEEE

Structure (SMILES)	inhibition at 1 µM [%]
CCNC(=O)Nc1cc(-c2nc(C(F)(F)F)cs2)c(-c2nc(-c3ncccn3)c(-c3n[nH]c(=O)o3)s2)cn1 [Example 36, 1-ethyl-3-(5-(5-(5-oxo-4,5-dihydro-1,3,4-oxadiazol-2-yl)-4-(pyrimidin-2-yl)thiazol-2-yl)-4-(4-(trifluoromethyl)thiazol-2-yl)pyridin-2-yl)urea]	107
CCNC(=O)Nc1cc(-c2nc(C(F)(F)F)cs2)c(-c2nc(-c3ncnn3C)c(-c3n[nH]c(=O)o3)s2)cn1 [Example 37, 1-ethyl-3-(5-(4-(1-mcthyl-1H-1,2,4-triazol-5-yl)-5-(5-oxo-4,5-dihydro-1,3,4-oxadiazol-2-yl)thiazol-2-yl)-4-(4-(trifluoromethyl)thiazol-2-yl)pyridin-2-yl)urea]	112
CCNC(=O)Nc1cc(-c2nnc(-c3ccncc3)o2)c(-c2cncc(-c3n[nH]c(=O)o3)c2)cn1 [Example 38, 1-ethyl-3-(5′-(5-oxo-4,5-dihydro-1,3,4-oxadiazol-2-yl)-4-(5-(pyridin-4-yl)-1,3,4-oxadiazol-2-yl)-3,3′-bipyridin-6-yl)urea]	108
CCNC(=O)Nc1cc(-c2nc(-c3ccncc3)cs2)c(-c2cncc(-c3n[nH]c(=O)o3)c2)cn1 [Example 39, N-ethyl-N′-[5′-(5-oxo-4,5-dihydro-1,3,4-oxadiazol-2-yl)-4-(4-pyridin-4-yl-1,3-thiazol-2-yl)-3,3′-bipyridin-6-yl]urea]	102
CCCCOc1ncc(-c2cnc(NC(=O)NCC)cc2-c2nc(C(F)(F)F)cs2)cc1-c1n[nH]c(=O)o1 [Example 40, 1-(6′-butoxy-5′-(5-oxo-4,5-dihydro-1,3,4-oxadiazol-2-yl)-4-(4-(trifluoromethyl)thiazol-2-yl)-3,3′-bipyridin-6-yl)-3-ethylurea]	117
CCCCOc1ncc(-c2cnc(NC(=O)NCC)cc2-c2nc(C(F)(F)F)cs2)cc1-c1nnc(C)o1 [Example 41]	109
CC(C)NC(=O)Nc1cc(-c2nc(C(F)(F)F)cs2)c(-c2cncc(-c3n[nH]c(=O)o3)c2)cn1 [Example 42, 1-isopropyl-3-(5′-(5-oxo-4,5-dihydro-1,3,4-oxadiazol-2-yl)-4-(4-(trifluoromethyl)thiazol-2-yl)-3,3′-bipyridin-6-yl)urea]	106
CCCNC(=O)Nc1cc(-c2nc(C(F)(F)F)cs2)c(-c2cncc(-c3n[nH]c(=O)o3)c2)cn1 [Example 44, 1-(5′-(5-oxo-4,5-dihydro-1,3,4-oxadiazol-2-yl)-4-(4-(trifluoromethyl)thiazol-2-yl)-3,3′-bipyridin-6-yl)-3-propylurea]	96
O=C(Nc1cc(-c2nc(C(F)(F)F)cs2)c(-c2cncc(-c3n[nH]c(=O)o3)c2)cn1)NC1CC1 [Example 45, 1-cyclopropyl-3-(5′-(5-oxo-4,5-dihydro-1,3,4-oxadiazol-2-yl)-4-(4-(trifluoromethyl)thiazol-2-yl)-3,3′-bipyridin-6-yl)urea]	103
O=C(Nc1cc(-c2nc(C(F)(F)F)cs2)c(-c2cncc(-c3n[nH]c(=O)o3)c2)cn1)NC1CCCCC1 [Example 46, 1-cyclohexyl-3-(5′-(5-oxo-4,5-dihydro-1,3,4-oxadiazol-2-yl)-4-(4-(trifluoromethyl)thiazol-2-yl)-3,3′-bipyridin-6-yl)urea]	-1
CCN(CC)C(=O)Nc1cc(-c2nc(C(F)(F)F)cs2)c(-c2cncc(-c3n[nH]c(=O)o3)c2)cn1 [Example 47, 1,1-diethyl-3-(5′-(5-oxo-4,5-dihydro-1,3,4-oxadiazol-2-yl)-4-(4-(trifluoromethyl)thiazol-2-yl)-3,3′-bipyridin-6-yl)urea]	72
O=C(NCC1CC1)Nc1cc(-c2nc(C(F)(F)F)cs2)c(-c2cncc(-c3n[nH]c(=O)o3)c2)cn1 [Example 48, 1-(cyclopropylmethyl)-3-(5′-(5-oxo-4,5-dihydro-1,3,4-oxadiazol-2-yl)-4-(4-(trifluoromethyl)thiazol-2-yl)-3,3′-bipyridin-6-yl)urea]	95
O=C(NCC(F)(F)F)Nc1cc(-c2nc(C(F)(F)F)cs2)c(-c2cncc(-c3n[nH]c(=O)o3)c2)cn1 [Example 49, 1-(5′-(5-oxo-4,5-dihydro-1,3,4-oxadiazol-2-yl)-4-(4-(trifluoromethyl)thiazol-2-yl)-3,3′-bipyridin-6-yl)-3-(2,2,2-trifluoroethyl)urea]	99
O=C(NCC(F)F)Nc1cc(-c2nc(C(F)(F)F)cs2)c(-c2cncc(-c3n[nH]c(=O)o3)c2)cn1 [Example 50, 1-(2,2-difluoroethyl)-3-(5′-(5-oxo-4,5-dihydro-1,3,4-oxadiazol-2-yl)-4-(4-(trifluoromethyl)thiazol-2-yl)-3,3′-bipyridin-6-yl)urea]	105
CCNC(=O)Nc1cc(-c2nc(C(F)(F)F)c(CNCCN3CCOCC3)s2)c(-c2cncc(-c3n[nH]c(=O)o3)c2)cn1 [Example 51, 1-ethyl-3-(5′-(5-hydroxy-1,3,4-oxadiazol-2-yl)-4-(5-((2-morpholinoethylamino)methyl)-4-(trifluoromethyl)thiazol-2-yl)-3,3′-bipyridin-6-yl)urea trihydrochloride]	98
CCNC(=O)Nc1cc(-c2nc(C(F)(F)F)c(CNC3CCCCC3)s2)c(-c2cncc(-c3n[nH]c(=O)o3)c2)cn1 [Example 52, 1-(4-(5-((cyclohexylamino)methyl)-4-(trifluoromethyl)thiazol-2-yl)-5′-(5-hydroxy-1,3,4-oxadiazol-2-yl)-3,3′-bipyridin-6-yl)-3-ethylurea hydrochloride]	108
CCNC(=O)Nc1cc(-c2nc(C(F)(F)F)c(CNC3CCCC3)s2)c(-c2cncc(-c3n[nH]c(=O)o3)c2)cn1 [Example 53, 1-(4-(5-((cyclopentylamino)methyl)-4-(trifluoromethyl)thiazol-2-yl)-5′-(5-hydroxy-1,3,4-oxadiazol-2-yl)-3,3′-bipyridin-6-yl)-3-ethylurea hydrochloride]	109
CCNC(=O)Nc1cc(-c2nc(C(F)(F)F)c(CNCCOC)s2)c(-c2cncc(-c3nnc(C)o3)c2)cn1 [Example 54, 1-ethyl-3-(4-(5-((2-methoxyethylamino)methyl)-4-(trifluoromethyl)thiazol-2-yl)-5′-(5-methyl-1,3,4-oxadiazol-2-yl)-3,3′-bipyridin-6-yl)urea]	97
CCNC(=O)Nc1cc(-c2nc(C(F)(F)F)c(CNCCN3CCOCC3)s2)c(-c2cncc(-c3nnc(C)o3)c2)cn1 [Example 55, 1-ethyl-3-(5′-(5-methyl-1,3,4-oxadiazol-2-yl)-4-(5-((2-morpholinoethylamino)methyl)-4-(trifluoromethyl)thiazol-2-yl)-3,3′-bipyridin-6-yl)urea]	96
CCNC(=O)Nc1cc(-c2nc(C(F)(F)F)c(CNC3CCCCC3)s2)c(-c2cncc(-c3nnc(C)o3)c2)cn1 [Example 56, 1-(4-(5-((cyclohexylamino)methyl)-4-(trifluoromethyl)thiazol-2-yl)-5′-(5-methyl-1,3,4-oxadiazol-2-yl)-3,3′-bipyridin-6-yl)-3-ethylurea]	96
CCNC(=O)Nc1cc(-c2nc(C(F)(F)F)c(CNC3CCCC3)s2)c(-c2cncc(-c3nnc(C)o3)c2)cn1 [Example 57, 1-(4-(5-((cyclopentylamino)methyl)-4-(trifluoromethyl)thiazol-2-yl)-5′-(5-methyl-1,3,4-oxadiazol-2-yl)-3,3′-bipyridin-6-yl)-3-ethylurea]	96
CCNC(=O)Nc1cc(-c2nc(C(F)(F)F)c(CNC3CCOCC3)s2)c(-c2cncc(-c3nnc(C)o3)c2)cn1 [Example 58, 1-ethyl-3-(5′-(5-methyl-1,3,4-oxadiazol-2-yl)-4-(5-((tetrahydro-2H-pyran-4-ylamino)methyl)-4-(trifluoromethyl)thiazol-2-yl)-3,3′-bipyridin-6-yl)urea]	97
CCNC(=O)Nc1cc(-c2nc(C(F)(F)F)c(C(=O)NCCOC)s2)c(-c2cncc(-c3n[nH]c(=O)o3)c2)cn1 [Example 59, 2-(6-(3-ethylureido)-5′-(5-oxo-4,5-dihydro-1,3,4-oxadiazol-2-yl)-3,3′-bipyridin-4-yl)-N-(2-methoxyethyl)-4-(trifluoromethyl)thiazole-5-carboxamide]	98
CCNC(=O)Nc1cc(-c2nc(C(F)(F)F)c(C(=O)NCCOC)s2)c(-c2cncc(-c3nnc(C)o3)c2)cn1 [Example 60, 2-(6-(3-ethylureido)-5′-(5-methyl-1,3,4-oxadiazol-2-yl)-3,3′-bipyridin-4-yl)-N-(2-methoxyethyl)-4-(trifluoromethyl)thiazole-5-carboxamide]	92
CCNC(=O)Nc1cc(-c2nc(C(F)(F)F)c(C(=O)NCCN3CCOCC3)s2)c(-c2cncc(-c3n[nH]c(=O)o3)c2)cn1 [Example 61, 2-(6-(3-ethylureido)-5′-(5-oxo-4,5-dihydro-1,3,4-oxadiazol-2-yl)-3,3′-bipyridin-4-yl)-N-(2-morpholinoethyl)-4-(trifluoromethyl)thiazole-5-carboxamide]	95
CCNC(=O)Nc1cc(-c2nc(C(F)(F)F)c(C(=O)NCCN3CCOCC3)s2)c(-c2cncc(-c3nnc(C)o3)c2)cn1 [Example 62, 2-(6-(3-ethylureido)-5′-(5-methyl-1,3,4-oxadiazol-2-yl)-3,3′-bipyridin-4-yl)-N-(2-morpholinoethyl)-4-(trifluoromethyl)thiazole-5-carboxamide]	86
